Biological target: T1, PAK3 (Homo sapiens, UniProt O75914)
T1 construct: purchased Thermo Fisher Scientific (Life Technologies) SelectScreen
Assay: SelectScreen Z'LYTE
Assay type: biochemical
Outline: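 NU5455 was profiled across the SelectScreen Broad panel of kinase activity and binding assays. Z'LYTE reactions such as CSF1R ran at apparent Km ATP, while the Adapta CAMK1 assay used ATP listed as 10. Values are given as percent.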

T1 sequence (O75914 whole entry): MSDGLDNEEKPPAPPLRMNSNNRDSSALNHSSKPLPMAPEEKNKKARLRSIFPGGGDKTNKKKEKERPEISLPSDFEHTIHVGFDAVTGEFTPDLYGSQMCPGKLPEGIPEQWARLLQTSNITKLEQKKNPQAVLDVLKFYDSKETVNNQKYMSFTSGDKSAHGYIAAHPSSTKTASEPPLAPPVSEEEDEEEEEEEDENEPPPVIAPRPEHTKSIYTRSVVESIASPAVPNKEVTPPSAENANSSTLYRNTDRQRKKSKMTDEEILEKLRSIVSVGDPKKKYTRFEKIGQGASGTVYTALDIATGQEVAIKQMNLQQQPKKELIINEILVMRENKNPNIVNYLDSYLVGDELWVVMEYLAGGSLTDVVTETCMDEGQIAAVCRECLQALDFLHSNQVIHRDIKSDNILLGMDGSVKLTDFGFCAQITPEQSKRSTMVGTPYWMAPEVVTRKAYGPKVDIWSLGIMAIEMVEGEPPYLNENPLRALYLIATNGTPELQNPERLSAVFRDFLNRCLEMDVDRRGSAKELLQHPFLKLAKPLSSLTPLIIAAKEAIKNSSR

CN(C(=O)CN1CCOCC1)c1ccc2sc3c(-c4cccc5c(=O)cc(N6CC7CCC(C6)O7)oc45)cccc3c2c1 [NU5455]
inhibition at 1 µM: -42.6%

— paper PMC6934184, “Selective DNA-PKcs inhibition extends the therapeutic index of localized radiotherapy and chemotherapy” (The Journal of Clinical Investigation, 2019)
